This note sets out measurements from US11634381B2, “RUNX2 transcription factor inhibitors and uses thereof” (University of Maryland, Baltimore, priority 2015, dated 2023).

A value given as a limit tells only on which side of the number the result lay.

Common to all, as to format: cell-based, human
The test system of test [1] is MDA-231, MDA-468, MCF7 and BT474 breast cancer cells. In words: ROS production luminometer assay. The following applies: 0-100 μM, 6-18 hours. As for the experimental part:
In FIG. 27A MDA-231, MDA-468, MCF7 and BT474 breast cancer cells were treated with compound 1 (0-100 μM) for 6-18 hours and ROS production in response to H2O2 treatment (2 mM) was measured with luciferase-based luminometer assay. In FIG. 27B T47D-Vector control or T47D-RUNX2-clone #10 overexpressing cells; MCF7-Vector Control or RUNX2-clone #2 overexpressing cells were treated with 50 μM compound 1 for 6 hours.

In a further test the test system is MDA-231 cells. In words: Cell-electrode impedance invasion assay (xCELLigence). The following applies: MDA-231, 50 μM, 48 hrs. As for the experimental part:
Real-time monitoring of cellular invasion was examined using an electrical impedance assay with an xCELLigence RTCA SP real-time cell-sensing device (Roche Applied Science). Matrigel (20 μl of 0.5 mg/ml) was pre-coated in the upper chamber of CIM plates and polymerized for 4 h and MDA-231 cells (75,000) were seeded onto wells containing growth medium with vehicle (0.1% DMSO) or compound 1 (50 μM). Impedance-based signals were measured every 5 minutes for 48 hrs according to the manufacturer's instructions. The invasive activity is expressed as the cell index (mean±SD) of duplicate wells. Three independent experiments were performed. In parallel, MDA-231 cells were plated onto wells with serum-free medium and the assay was performed.

Another test concerns MCF7 RUNX2 Tet.OFF cells. In words: Suspension culture tumorsphere formation. To be noted: for tumorsphere diameter: 50 μM compound 1, 12 days. As for the experimental part:
MCF7 Tet.OFF cells were grown in the presence (+Dox, RUNX2 negative) or absence (−Dox, RUNX2 positive) of doxycycline for 3 days. Cells were then scraped and counted. 60,000 cells were plated in each well of a 6-well ultra-low attachment plate (Corning; 3471) in Promocell Basal Medium (Promocell; c-22211) complete with Supplement Mix (Promocell; c-39216). Cells were then treated with or without 2 ng/mL TGFβ (R&D Systems; 240-B-002). After growth for 10-15 days, wells were photographed and tumorsphere diameters were measured from photographic images (mm). Colony diameters were calculated using the formula: (L+W)/2. Representative photographs were obtained at 4× magnification. […] For TAZ siRNA knockdown experiments, TAZ siRNA was transfected (as below) into MCF7 Tet.OFF cells and 24 hr later cells were scraped and placed into suspension as described above. Small-Interfering RNA (siRNA) pool targeting RUNX1, RUNX2, and non-targeting control were purchased from Dharmacon, and transfected into cells using RNAiMAX Reagent (Invitrogen). Western blot analysis was performed 48 hrs after transfection.

In another test the test system is breast cancer cells. In words: Cell growth assay (crystal violet). To be noted: for inhibition at 50 µM: Homo sapiens, 72 hrs. The text has this: Cells wereplated on 96-well (30,000 cells/well) or 24-well plates (50,000 cells/well). […] Cells were stained with crystal violet (0.5% in Methanol:Acetic Acid=3:1) and washed with PBS. Crystal violet was solubilized in DMSO and measured in a microplate reader at 592 nm.

In a further test the test system is RUNX2. In words: Western blot of RUNX2, RUNX1, CBF-β. The following applies: for CBF-β levels: MDA-231, MDA-468 and MCF7 cells. As for the experimental part: Whole cell lysates extracted in RIPA buffer (Upstate) were separated on 4-12% gradient SDS-PAGE and transferred to nitrocellulose membrane. The blots were incubated with specific antibodies for each protein overnight at 4° C. After antibody washing, the blots were reacted with their respective secondary antibody and detected with enhanced chemiluminescence reagents (Millipore) according to the supplier's protocol. Antibodies for proteins were purchased as below. RUNX1, RUNX2, CBF-β, ubiquitin and caspase-3 (Cell Signaling Technologies), S451-p-RUNX2 (Bioss Gentaur, Belgium), RUNX3 and Glut-1 (Millipore, Calif.), β-actin and RUNX2 antibody for IHC (Sigma-Aldrich), and Ki-67 for IHC (Bethyl Laboratories, Inc, TX).
(Immunoblotting shows a protein as a band on a membrane.)

In another test the test system is BC cells. In words: Anchorage-independent cell growth assay (soft agar). To be noted: 50 μM. The protocol:
Cells (10,000) were mixed in 1 ml of 0.3% low-melting agarose over a 0.6% agar bottom layer in normal growth media. The medium (600 μl) with or without compound 1 (50 μM) on soft agar was changed three times a week for 2-3 weeks. Images of MDA-231 and MCF7 were taken using Nikon Eclipse TE-2000S microscope with Zen Pro image software, and of MDA-468 using Olympus CKX41 microscope with Q-Capture Pro 7 image software at indicated magnifications under the same exposure settings for corresponding vehicle and drug treatments.

The term inhibition denotes the relative decrease from the control value, in per cent. Lower therefore signals little suppression.

As for `O=C(O)C1C2C=CC(C2)C1C(=O)Nc1ccc(Cl)c(Cl)c1` (stereo not drawn) [compound 1, 3-(N-(3,4-dichlorophenyl)carbamoyl)-5-norbornene-2-carboxylic acid], the “mitochondrial ROS production” value in test [1] was “increase in mitochondrial ROS production”. In addition, in the test on MDA-231 cells, the “cell index (mean±SD)” value is on record as 1.6636±0.1845. Further, the tumorsphere diameter with MCF7 RUNX2 Tet.OFF cells (RUNX2 negative cells) was 6.37±1.78 mm; in the test on MCF7 RUNX2 Tet.OFF cells (RUNX2 positive cells) it was 4.83±1.87 mm. In addition, in the test with MCF7 RUNX2 Tet.OFF cells (RUNX2 positive cells, 50 μM compound 1), the “fold inhibition of tumorsphere diameter relative to vehicle” value is listed as ~4 fold. Further, the “inhibition in cell viability” value in the test on breast cancer cells (0˜100 μM, over 24 hrs) is “no significant inhibition”. In addition, the cell growth inhibition result in the test with breast cancer cells (0˜100 μM, over 72 hrs) was “dose- and time-dependent cell growth inhibition”. In addition, the inhibition at 50 µM is > 50% with breast cancer cells (MDA-MB-468 cells); < 50% in the test on breast cancer cells (majority of TNBC and luminal type BC cells). The “cell proliferation relative to vehicle controls” value with breast cancer cells (ectopic RUNX2-expressing MCF7 and T47D cells, 7 days) is listed as “dramatic decrease”. The CBF-β levels result with RUNX2 (6 hrs) is reported as “increased”; in the test with RUNX2 (after 24 hrs), “decreased”. For the same compound, the “mRNA and protein expression of RUNX2” value in the test with RUNX2 (T47D-RUNX2 and MCF7-RUNX2 cells, 50 μM, 72 hrs) is “further enhanced”. Moreover, the CBF-β level entry with RUNX2 (ectopic RUNX2 T47D and MCF7 cells, 50 μM, 72 hrs) was “reduced”. The “stability of RUNX1 or of CBF-β” value in the test on RUNX2 (in the presence of CHX) was “not increased”. Moreover, the RUNX1 protein levels result with RUNX2 (most BC cells) is “not altered”. For the same compound, in the test with BC cells (2-3 weeks), the anchorage-independent cell growth result is given as “strongly inhibited”. Also, the “colony size relative to control” value with BC cells (MDA-231, MCF7, MDA-468) is given as < 1/10.
